The text below walks through data of ChEMBL document CHEMBL1130144, “Ras farnesyltransferase: a new therapeutic target” (J Med Chem, 1997).

Experiment [1] concerns NIH3T3. As to the kind of experiment: Inhibitory activity against Ha-Ras-transformed NIH3T3 cells. In kind it is functional, Mus musculus.
Experiment [2] deals with Geranylgeranyl transferase type I (Homo sapiens, UniProt P49354+P53609). As to the kind of experiment: (§1) Activity against Geranylgeranyl transferase type I. In kind it is protein-complex assay.
The target of experiment [3] is Protein farnesyltransferase (Bos taurus, UniProt P29702+P49355). As to the kind of experiment: Activity against bovine Farnesyltransferase. In kind it is protein-complex assay.
In experiment [4] the target is Protein farnesyltransferase (Mus musculus, UniProt Q61239+Q8K2I1). Briefly: Inhibition of Ras processing. In kind it is functional.
The target in experiment [5] is T1, Protein farnesyltransferase (Homo sapiens, UniProt P49354+P49356). As to the kind of experiment: Inhibition of Ras processing in v-Ras-transformed cells. In kind it is functional, cell-based.
The target of experiment [6] is T1, Protein farnesyltransferase. Briefly: Inhibitory activity against Ras Farnesyltransferase. In kind it is protein-complex assay.
Experiment [7] concerns the target T2, Protein farnesyltransferase (Rattus norvegicus, UniProt Q02293+Q04631). As to the kind of experiment: Activity against rat Farnesyltransferase. In kind it is protein-complex assay.
Experiment [8] has as its target T1, Protein farnesyltransferase. Briefly: Activity against Farnesyltransferase. In kind it is protein-complex assay.
The target is the same in experiment [9]. As to the kind of experiment: Inhibitory activity against farnesyl pyrophosphate. In kind it is protein-complex assay.
The target of experiment [10] is Protein farnesyltransferase (Mus musculus) (UniProt Q61239+Q8K2I1). Briefly: Inhibition of Ras-processing in H-Ras transformed NIH3T3 fibroblasts. In kind it is functional, cell-based.
In experiment [11] the target is T1, Protein farnesyltransferase. As to the kind of experiment: Activity against human Farnesyltransferase. In kind it is protein-complex assay.
In experiment [12] the target is Protein farnesyltransferase (Sus scrofa). Briefly: Activity against pig Farnesyltransferase.
Experiment [13] is filed under the species Mus musculus. Briefly: Percent increase in life span of NIH3T3 cell tumor-bearing nude mice. In kind it is functional.
The test system of experiment [14] is NIH3T3. As to the kind of experiment: Activity against H-Ras transformed NIH3T3 fibroblasts in a clonogenic assay. In kind it is functional, cell-based. The conditions noted are these: Mus musculus.
In the next experiment the test system is Tumor Cell line. Briefly: Inhibition of colony formation in soft agar of 14 human tumor cell lines. In kind it is functional, cell-based.
Experiment [15] deals with T2, Protein farnesyltransferase. Briefly: Activity against rat brain Farnesyltransferase.
Experiment [16] deals with T1, Protein farnesyltransferase. As to the kind of experiment: Concentration inhibiting farnesylation of p21ras in Ras-transformed cells. In kind it is functional, cell-based.
Another experiment addresses T3, Farnesyltransferase (Saccharomyces cerevisiae S288c, UniProt P22007+P29703).
T3 sequence (P29703 whole entry): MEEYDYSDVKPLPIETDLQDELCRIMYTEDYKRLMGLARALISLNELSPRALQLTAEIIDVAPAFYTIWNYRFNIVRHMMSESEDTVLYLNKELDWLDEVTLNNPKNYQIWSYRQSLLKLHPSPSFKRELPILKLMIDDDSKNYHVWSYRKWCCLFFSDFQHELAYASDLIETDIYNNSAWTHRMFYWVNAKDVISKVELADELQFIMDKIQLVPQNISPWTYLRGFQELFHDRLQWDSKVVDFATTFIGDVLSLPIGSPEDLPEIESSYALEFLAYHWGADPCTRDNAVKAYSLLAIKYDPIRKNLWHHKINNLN
T3 sequence (P22007 whole entry): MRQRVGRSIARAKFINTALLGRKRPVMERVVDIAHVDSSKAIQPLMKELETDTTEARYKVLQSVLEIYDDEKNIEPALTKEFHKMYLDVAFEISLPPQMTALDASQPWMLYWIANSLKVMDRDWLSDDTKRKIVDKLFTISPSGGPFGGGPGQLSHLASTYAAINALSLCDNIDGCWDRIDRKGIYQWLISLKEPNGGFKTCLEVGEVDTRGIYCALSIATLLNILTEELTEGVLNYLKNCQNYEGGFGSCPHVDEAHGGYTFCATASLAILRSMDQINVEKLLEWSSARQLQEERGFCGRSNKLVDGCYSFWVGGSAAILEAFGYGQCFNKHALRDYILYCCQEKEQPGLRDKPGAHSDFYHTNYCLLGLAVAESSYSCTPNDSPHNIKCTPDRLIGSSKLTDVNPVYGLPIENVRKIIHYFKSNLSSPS
As to the kind of experiment: Activity against yeast Farnesyltransferase. In kind it is protein-complex assay.

A short description of experiment [17]: as §1.
For experiment [18], the system named is NIH3T3. As to the kind of experiment: Inhibition of Ras processing in v-Ras-transformed NIH 3T3 cell growth in soft agar at 50 uM. In kind it is functional, cell-based. The note with it: Mus musculus.
The target in experiment [19] is T1, Protein farnesyltransferase. As to the kind of experiment: Inhibition of H-Ras Farnesyltransferase. In kind it is protein-complex assay.
A further experiment deals with Homo sapiens. As to the kind of experiment: Inhibition of EJ-1 human bladder carcinoma growth at 100 mg/kg. In kind it is functional.
Experiment [20] has as its system Mus musculus. As to the kind of experiment: Activity against H-Ras-transformed rat-1 tumor cells implanted intraperitoneally in athymic mice. In kind it is functional.

The structures appear in SMILES notation. pIC50, pKi: −log10 of the molar value.

In the experiment on NIH3T3 [1], `COCC[C@@H]1CN(C(=O)c2cccc3ccccc23)CCN1C[C@H](N)CS` had an IC75 of 40 mg/kg. Further, the negative-log IC50 (pIC50) (as a rule, the IC50 on a negative log10 scale, so that one unit is a factor of ten) in experiment [2] is 5.00; in experiment [3] it was 8.30; in experiment [4], 6.30.
On to `CSCC[C@H](NC(=O)[C@H](Cc1ccccc1)NC[C@@H](NC[C@@H](N)CS)C(C)C)C(=O)O`, for which, in [5], the negative-log IC50 (pIC50) is 4.30.
`CC(C)=CCC/C(C)=C/CC/C(C)=C/C(=O)NC(CCC(=O)N[C@H](C(=O)N[C@@H](CC(C)C)C(=O)N[C@@H](CO)C(=O)O)C(C)C)C(=O)O` (some centres undefined): the negative logarithm of the IC50 (pIC50) in experiment [6] is 7.48.
On to `CC(C)(C)[C@H](NC[C@@H](N)CS)C(=O)N1Cc2ccccc2C[C@H]1C(=O)N[C@@H](CCC(N)=O)C(=O)O`, for which the pIC50 was 5.85 in experiment [2] and 8.55 in experiment [7].
For `CC(C)=CCC/C(C)=C/CC/C(C)=C/CNC(=O)C(COP(=O)(O)O)C(=O)O` (centres undefined), the negative-log IC50 (pIC50) in experiment [8] was 7.08.
Take `CC(C)=CCC/C(C)=C/CC/C(C)=C/CCP(=O)(O)CP(=O)(O)O`: in [9], the pKi (in general, −log10 of the Ki, conventionally taken in molar units) is 6.08. The Concentration in [10] is 1 µM.
On to `CCC/C=C\c1ccccc1/C=C/C(=O)N[C@H](Cc1ccc(O)cc1)C(=O)N(C)C(Cc1ccc(OC)c(O)c1Cl)C(=O)N(C)[C@@H](Cc1ccccc1)C(=O)OC[C@@H]1NC(=O)CNC1=O` (some centres undefined), for which the pIC50 in experiment [11] was 7.00.
In turn, `CC(C)=CCC/C(C)=C/CC/C(C)=C/C(=O)C(F)(F)P(=O)(O)O` gave a pIC50 in experiment [12] of 6.46.
With `O=C(CN(Cc1ccc(OCc2ccccc2)cc1)C(=O)[C@H](Cc1c[nH]cn1)NC(=O)OCc1ccccc1)NCCc1ccccc1`, in the experiment filed under Mus musculus [13], the ILS (as a rule, how much longer treated animals lived than controls) is reported as 35%. This compound also returned a Concentration in [10] of 0.1 µM. Further, the negative logarithm of the IC50 (pIC50) in the experiment on NIH3T3 [14] was 5.36; in [8], 6.77.
`CN(C(=O)[C@@H](Cc1c[nH]cn1)NC(=O)OCc1ccccc1)[C@@H](Cc1ccc(OCc2ccccc2)cc1)C(=O)NCCOCc1ccccc1` had a Concentration in experiment [10] of 2.5 µM.
In the experiment on Tumor Cell line, `COC(=O)[C@H](CCSC)NC(=O)[C@H](/C=C\[C@@H](/C=C/[C@@H](N)CS)C(C)C)Cc1ccccc1` showed a pIC50 of 4.22.
The compound `COC1=C(N)C(=O)c2nc(-c3nc(C(=O)O)c(C)c(-c4cccc(OC)c4O)c3N)ccc2C1=O` had a pIC50 in experiment [8] of 4.68.
As for `CCC(OCCCCNCCSS(=O)(=O)O)C1CCCCC1` (centres undefined), the pIC50 in experiment [15] was 5.70. This compound also had a Concentration in [16] of 25 µM.
In turn, `CC(C)=CCC/C(C)=C/CC/C(C)=C/C(O)P(=O)(O)O` (centres undefined) gave a negative logarithm of the Ki (pKi) in experiment [9] of 8.28. The Concentration in [10] came to 1 µM.
In turn, `CCCCC(C)/C=C(C)/C=C(\C)CC(=O)NC1=CC(O)(/C=C/C=C/C=C/C(=O)NC2=C(O)CCC2=O)C2OC2C1=O` (centres undefined) had a pIC50 at Farnesyltransferase of 5.30.
In [8], `O=C(N[C@H](Cc1cnc[nH]1)C(=O)N[C@@H](Cc1ccc(OCc2ccccc2)cc1)C(=O)NCCOCc1ccccc1)OCc1ccccc1` gave a negative-log IC50 (pIC50) of 7.70.
Turning to `CC[C@H](C)[C@H](NC[C@@H](NC[C@@H](N)CS)[C@@H](C)CC)C(=O)N[C@@H](CCO)C(=O)O`, the pIC50 is less than 5.00 in [17] and 7.74 in [3].
For `CC[C@@H](C)[C@H](NC[C@@H](NC[C@@H](N)CS)[C@H](C)CC)C(=O)N[C@H]1CCOC1=O`, the pIC50 in experiment [2] is less than 5.00; in the experiment with NIH3T3 [18], 4.30; in experiment [3], 6.55.
As to `O=C(CN(Cc1ccc(OCc2ccccc2)cc1)C(=O)[C@H](Cc1c[nH]cn1)NC(=O)OCc1ccccc1)NCCOCc1ccccc1`, in experiment [10], the Concentration is 1 µM. For the same compound, in experiment [8], the negative logarithm of the IC50 (pIC50) was 6.59.
In [19], `CSCC[C@H](NC(=O)[C@H](/C=C\[C@@H](/C=C/[C@@H](N)CS)C(C)C)Cc1ccccc1)C(=O)O` had a pIC50 of 7.96. In addition, at 100 mg/kg the inhibition in vivo in the experiment with Homo sapiens was 60%.
Compound `O=C(N[C@H](Cc1c[nH]cn1)C(=O)N[C@@H](Cc1ccc(OCc2ccccc2)cc1)C(=O)NCCOCc1ccccc1)OCc1ccccc1` had a Concentration in experiment [10] of 5 µM.
In the case of `COC(=O)[C@H](CCSC)NC(=O)[C@@H]1Cc2ccccc2CN1C(=O)[C@@H](NC[C@@H](N)CS)C(C)(C)C`, the pIC50 in experiment [2] is 6.70; in experiment [7], 7.07. In addition, in the experiment with Mus musculus [20], the T/C (in general, the result in the treated group divided by that in the control group, in per cent) is recorded as 154%.
